± gives the uncertainty stated by the source.
Assay: xn = mol fraction of the nth substance listed

COc1ccccc1 + CCOC(=O)OCC
viscosity [mPa·s], 100 kPa
Conditions | x2 = 0.1064 | x2 = 0.203 | x2 = 0.3032 | x2 = 0.3994 | x2 = 0.499 | x2 = 0.6007 | x2 = 0.7032 | x2 = 0.7988 | x2 = 0.8975
303.15 K | 0.894 ± 0.019 | 0.867 ± 0.018 | 0.84 ± 0.018 | 0.817 ± 0.017 | 0.793 ± 0.017 | 0.771 ± 0.016 | 0.75 ± 0.016 | 0.731 ± 0.015 | 0.714 ± 0.015
308.15 K | 0.824 ± 0.017 | 0.801 ± 0.017 | 0.778 ± 0.016 | 0.759 ± 0.016 | 0.738 ± 0.015 | 0.719 ± 0.015 | 0.702 ± 0.015 | 0.687 ± 0.014 | 0.673 ± 0.014
313.15 K | 0.767 ± 0.016 | 0.748 ± 0.016 | 0.729 ± 0.015 | 0.711 ± 0.015 | 0.694 ± 0.015 | 0.677 ± 0.014 | 0.662 ± 0.014 | 0.649 ± 0.014 | 0.636 ± 0.013

C1CCOC1 + CCOC(C)=O
101.32 kPa
Conditions | viscosity [mPa·s]
303.15 K, x2 = 0.0431 | 0.443 ± 0.012
303.15 K, x2 = 0.0837 | 0.437 ± 0.012
303.15 K, x2 = 0.128 | 0.434 ± 0.012
303.15 K, x2 = 0.1718 | 0.431 ± 0.012
303.15 K, x2 = 0.2625 | 0.425 ± 0.011
303.15 K, x2 = 0.3504 | 0.421 ± 0.011
303.15 K, x2 = 0.4521 | 0.416 ± 0.011
303.15 K, x2 = 0.6544 | 0.41 ± 0.011
303.15 K, x2 = 0.8229 | 0.407 ± 0.011
303.15 K, x2 = 0.8817 | 0.407 ± 0.011
303.15 K, x2 = 0.9396 | 0.406 ± 0.011
313.15 K, x2 = 0.2044 | 0.384 ± 0.01
313.15 K, x2 = 0.4059 | 0.375 ± 0.01
313.15 K, x2 = 0.5072 | 0.373 ± 0.01
313.15 K, x2 = 0.6002 | 0.37 ± 0.01
313.15 K, x2 = 0.7996 | 0.369 ± 0.01

CC(C)=O + CCOC(C)=O
viscosity [mPa·s], 101 kPa
Conditions | x2 = 0.0999 | x2 = 0.2009 | x2 = 0.3284 | x2 = 0.4015 | x2 = 0.4977 | x2 = 0.5969 | x2 = 0.6915 | x2 = 0.7908 | x2 = 0.9076
293.15 K | 0.3328 ± 0.009 | 0.3471 ± 0.0093 | 0.3615 ± 0.0097 | 0.3751 ± 0.01 | 0.3871 ± 0.01 | 0.4003 ± 0.011 | 0.4129 ± 0.011 | 0.4274 ± 0.011 | 0.4419 ± 0.012
298.15 K | 0.317 ± 0.0086 | 0.3305 ± 0.0089 | 0.3438 ± 0.0093 | 0.3563 ± 0.0096 | 0.3674 ± 0.0099 | 0.3795 ± 0.01 | 0.3913 ± 0.01 | 0.4035 ± 0.011 | 0.4179 ± 0.011
303.15 K | 0.3022 ± 0.0082 | 0.3151 ± 0.0085 | 0.3274 ± 0.0088 | 0.3375 ± 0.0091 | 0.3502 ± 0.0094 | 0.3603 ± 0.0097 | 0.3716 ± 0.01 | 0.3825 ± 0.01 | 0.3961 ± 0.011
313.15 K | 0.2757 ± 0.0075 | 0.2877 ± 0.0078 | 0.2982 ± 0.0081 | 0.3065 ± 0.0083 | 0.3182 ± 0.0086 | 0.3262 ± 0.0088 | 0.3364 ± 0.0091 | 0.3455 ± 0.0093 | 0.3573 ± 0.0096

CCCCn1cc[n+](C)c1.O=S(=O)([O-])C(F)(F)F + CCOC(C)=O
100 kPa
Conditions | viscosity [mPa·s]
298.15 K, x1 = 0.8932 | 54.68 ± 11
303.15 K, x1 = 0.3056 | 8.97 ± 1.8
308.15 K, x1 = 0.3056 | 7.31 ± 1.5
313.15 K, x1 = 0.3056 | 6.63 ± 1.3
313.15 K, x1 = 0.3978 | 9.79 ± 2
318.15 K, x1 = 0.3056 | 5.79 ± 1.2
323.15 K, x1 = 0.3056 | 4.97 ± 1
323.15 K, x1 = 0.3978 | 7.21 ± 1.4
323.15 K, x1 = 0.5067 | 9.88 ± 2

C1CCOC1 + CN(C)C=O
viscosity [mPa·s], 101 kPa
Conditions | x2 = 0.0988 | x2 = 0.1978 | x2 = 0.2971 | x2 = 0.3967 | x2 = 0.4966 | x2 = 0.5967 | x2 = 0.6971 | x2 = 0.7978 | x2 = 0.8988
298.15 K | 0.47 ± 0.02 | 0.482 ± 0.02 | 0.496 ± 0.021 | 0.518 ± 0.021 | 0.547 ± 0.022 | 0.586 ± 0.024 | 0.63 ± 0.025 | 0.679 ± 0.027 | 0.737 ± 0.029
308.15 K | 0.434 ± 0.019 | 0.444 ± 0.019 | 0.458 ± 0.02 | 0.476 ± 0.02 | 0.502 ± 0.021 | 0.533 ± 0.022 | 0.57 ± 0.023 | 0.614 ± 0.025 | 0.659 ± 0.026
318.15 K | 0.41 ± 0.018 | 0.431 ± 0.019 | 0.454 ± 0.019 | 0.478 ± 0.02 | 0.502 ± 0.021 | 0.523 ± 0.022 | 0.545 ± 0.022 | 0.568 ± 0.023 | 0.592 ± 0.024

CC(C)=O + CN(C)C=O
298.15 K, 101 kPa
Conditions | viscosity [mPa·s]
x2 = 0.0367 | 0.32 ± 0.007
x2 = 0.09776 | 0.343 ± 0.008
x2 = 0.136 | 0.369 ± 0.008
x2 = 0.2182 | 0.378 ± 0.009
x2 = 0.394 | 0.457 ± 0.012
x2 = 0.4912 | 0.499 ± 0.013
x2 = 0.6429 | 0.565 ± 0.016
x2 = 0.8008 | 0.646 ± 0.019

CC1COC(=O)O1 (configuration not stated) + CN(C)C=O
101.33 kPa
Conditions | viscosity [mPa·s]
298.15 K, x1 = 0.1053 | 0.89 ± 0.006
298.15 K, x1 = 0.1593 | 0.942 ± 0.006
298.15 K, x1 = 0.2227 | 1.004 ± 0.007
298.15 K, x1 = 0.2607 | 1.047 ± 0.007
298.15 K, x1 = 0.3155 | 1.107 ± 0.007
298.15 K, x1 = 0.3624 | 1.164 ± 0.007
298.15 K, x1 = 0.4248 | 1.246 ± 0.008
298.15 K, x1 = 0.4476 | 1.278 ± 0.008
298.15 K, x1 = 0.5094 | 1.37 ± 0.009
298.15 K, x1 = 0.5658 | 1.462 ± 0.009
298.15 K, x1 = 0.6334 | 1.582 ± 0.01
298.15 K, x1 = 0.659 | 1.63 ± 0.01
298.15 K, x1 = 0.7108 | 1.742 ± 0.011
298.15 K, x1 = 0.7559 | 1.835 ± 0.012
298.15 K, x1 = 0.8147 | 1.983 ± 0.012
298.15 K, x1 = 0.8705 | 2.117 ± 0.013
298.15 K, x1 = 0.9299 | 2.284 ± 0.014
298.15 K, x1 = 0.954 | 2.357 ± 0.015
308.15 K, x1 = 0.0453 | 0.742 ± 0.005
308.15 K, x1 = 0.1078 | 0.787 ± 0.005
308.15 K, x1 = 0.1606 | 0.828 ± 0.005
308.15 K, x1 = 0.2114 | 0.87 ± 0.006
308.15 K, x1 = 0.2565 | 0.91 ± 0.006
308.15 K, x1 = 0.2989 | 0.95 ± 0.006
308.15 K, x1 = 0.3551 | 1.005 ± 0.007
308.15 K, x1 = 0.4045 | 1.058 ± 0.007
308.15 K, x1 = 0.4505 | 1.109 ± 0.007
308.15 K, x1 = 0.4988 | 1.167 ± 0.008
308.15 K, x1 = 0.5351 | 1.213 ± 0.008
308.15 K, x1 = 0.6158 | 1.33 ± 0.009
308.15 K, x1 = 0.6532 | 1.38 ± 0.009
308.15 K, x1 = 0.7153 | 1.48 ± 0.009
308.15 K, x1 = 0.7499 | 1.539 ± 0.01
308.15 K, x1 = 0.802 | 1.638 ± 0.01
308.15 K, x1 = 0.8517 | 1.731 ± 0.011
308.15 K, x1 = 0.9033 | 1.841 ± 0.012
318.15 K, x1 = 0.049 | 0.664 ± 0.005
318.15 K, x1 = 0.0961 | 0.694 ± 0.005
318.15 K, x1 = 0.1672 | 0.74 ± 0.005
318.15 K, x1 = 0.2118 | 0.772 ± 0.005
318.15 K, x1 = 0.2639 | 0.811 ± 0.005
318.15 K, x1 = 0.3122 | 0.849 ± 0.006
318.15 K, x1 = 0.3528 | 0.884 ± 0.006
318.15 K, x1 = 0.4228 | 0.946 ± 0.006
318.15 K, x1 = 0.4487 | 0.97 ± 0.006
318.15 K, x1 = 0.4941 | 1.015 ± 0.007
318.15 K, x1 = 0.5567 | 1.081 ± 0.007
318.15 K, x1 = 0.6184 | 1.152 ± 0.007
318.15 K, x1 = 0.6678 | 1.216 ± 0.008
318.15 K, x1 = 0.7127 | 1.271 ± 0.008
318.15 K, x1 = 0.7415 | 1.311 ± 0.008
318.15 K, x1 = 0.8179 | 1.424 ± 0.009
318.15 K, x1 = 0.8689 | 1.505 ± 0.01
318.15 K, x1 = 0.9013 | 1.56 ± 0.01
